Assay results published in patent publication US11292821B2, “Peptides and combination of peptides for use in immunotherapy against lung cancer, including NSCLC, SCLC and other cancers” (Immatics Biotechnologies GmbH, priority 2017, dated 2022).

Legend:
HLA-A*02 = HLA-A*02 (Homo sapiens, UniProt P04439, D140Y/D185E/D98H/E176V/E277Q/G131W/G231S/I119V/I121R/I166T/I218V/N151K/N90K/P208A/P217A/Q86G/Q94H/R138H/R169H); experiment: MHC binding assay (UV-ligand exchange, β2m ELISA)
CD8+ T cells = experiment: In vitro T-cell priming assay with aAPCs (in vitro immunogenicity for MHC class I presented peptides); assay type: cell-based, human; details: in vitro immunogenicity
HLA-A*03 = HLA-A*03 (Homo sapiens, UniProt P04439); experiment: MHC binding assay (UV-ligand exchange, β2m ELISA)
HLA-B*08 = experiment: MHC binding assay (UV-ligand exchange, β2m ELISA); parameters: species or system human

Peptide exchange (peptide exchange yield, MHC class I binding score) (HLA-A*03)	Peptide exchange (peptide exchange yield, MHC class I binding score) (HLA-B*08)	Substance	further results
“++++” (>75% = ++++)		204 (AVFDKFIRY; listed as Homo sapiens) [compound 204]	
“++++” (>75% = ++++)		207 (RSFNGLLTMY; listed as Homo sapiens) [compound 207]	
“++++” (>75% = ++++)		210 (ATSGVPVYK; listed as Homo sapiens) [compound 210]	Wells positive [%] (CD8+ T cells; HLA A*03): “++++” (>=70% = ++++)
“++++” (>75% = ++++)		211 (TVNPVAIHK; listed as Homo sapiens) [compound 211]	
“++++” (>75% = ++++)		212 (KAYEQVMHY; listed as Homo sapiens) [compound 212]	
“++++” (>75% = ++++)		214 (RTMSEAALVRK; listed as Homo sapiens) [compound 214]	Wells positive [%] (CD8+ T cells; HLA A*03): “+” (<20% = +)
“++++” (>75% = ++++)		215 (MMFSGPQILKL; listed as Homo sapiens) [compound 215]	
“++++” (>75% = ++++)		219 (RLRSSLVFK; listed as Homo sapiens) [compound 219]	
	“+++” (>50 = +++)	298 (FNKRKPLSL; listed as Homo sapiens) [compound 298]	Wells positive [%] (CD8+ T cells; HLA B*08): “+” (<20% = +)
	“+++” (>50 = +++)	300 (VASPKHCVL; listed as Homo sapiens) [compound 300]	Wells positive [%] (CD8+ T cells; HLA B*08): “+” (<20% = +)
	“++++” (>75% = ++++)	303 (LPFPKFTV; listed as Homo sapiens) [compound 303]	Wells positive [%] (CD8+ T cells; HLA B*08): “++” (20%-49% = ++)
	“++++” (>75% = ++++)	304 (ELKKLYCQI; listed as Homo sapiens) [compound 304]	
	“++++” (>75% = ++++)	305 (ALKLRVAVL; listed as Homo sapiens) [compound 305]	Wells positive [%] (CD8+ T cells; HLA B*08): “+” (<20% = +)
	“++++” (>75% = ++++)	307 (ILLPRTVSL; listed as Homo sapiens) [compound 307]	Wells positive [%] (CD8+ T cells; HLA B*08): “+” (<20% = +)
	“++++” (>75% = ++++)	308 (MLKQKVEEL; listed as Homo sapiens) [compound 308]	Wells positive [%] (CD8+ T cells; HLA B*08): “+” (<20% = +)
	“+++” (>50 = +++)	309 (DAIQRKYSC; listed as Homo sapiens) [compound 309]	
	“++++” (>75% = ++++)	310 (LPPKKFVL; listed as Homo sapiens) [compound 310]	
	“++++” (>75% = ++++)	311 (EIRIRVVQM; listed as Homo sapiens) [compound 311]	Wells positive [%] (CD8+ T cells; HLA B*08): “+” (<20% = +)
	“++++” (>75% = ++++)	313 (ELKKKEYEEL; listed as Homo sapiens) [compound 313]	Wells positive [%] (CD8+ T cells; HLA B*08): “+” (<20% = +)
	“++++” (>75% = ++++)	315 (DIYQRALNL; listed as Homo sapiens) [compound 315]	Wells positive [%] (CD8+ T cells; HLA B*08): “+” (<20% = +)
“++++” (>75% = ++++)		453 (AINTSIKNK; listed as Homo sapiens) [compound 453]	
“++++” (>75% = ++++)		455 (RIADIFVKK; listed as Homo sapiens) [compound 455]	
“++++” (>75% = ++++)		456 (SMFTAILKK; listed as Homo sapiens) [compound 456]	

Second part, the substance before the results:

Substance	Peptide exchange (peptide exchange yield, MHC class I binding score) (HLA-A*03)	Peptide exchange (peptide exchange yield, MHC class I binding score) (HLA-B*08)	further results
97 (VLALVNSTV; listed as Homo sapiens) [compound 97]			Peptide exchange (peptide exchange yield, MHC class I binding score) (HLA-A*02): “++++” (>75% = ++++); Wells positive [%] (CD8+ T cells; HLA A*02): “+++” (50%-69% = +++)
101 (FIISDWRFVL; listed as Homo sapiens) [compound 101]			Peptide exchange (peptide exchange yield, MHC class I binding score) (HLA-A*02): “+++” (>50 = +++); Wells positive [%] (CD8+ T cells; HLA A*02): “+” (<20% = +)
125 (VLQPFLPSI; listed as Homo sapiens) [compound 125]			Peptide exchange (peptide exchange yield, MHC class I binding score) (HLA-A*02): “++++” (>75% = ++++); Wells positive [%] (CD8+ T cells; HLA A*02): “++++” (>=70% = ++++)
127 (GLDGSLVFL; listed as Homo sapiens) [compound 127]			Peptide exchange (peptide exchange yield, MHC class I binding score) (HLA-A*02): “++++” (>75% = ++++); Wells positive [%] (CD8+ T cells; HLA A*02): “++” (20%-49% = ++)
128 (FLGTTPTL; listed as Homo sapiens) [compound 128]			Peptide exchange (peptide exchange yield, MHC class I binding score) (HLA-A*02): “++++” (>75% = ++++); Wells positive [%] (CD8+ T cells; HLA A*02): “+” (<20% = +)
129 (VLYDKDAVYV; listed as Homo sapiens) [compound 129]			Peptide exchange (peptide exchange yield, MHC class I binding score) (HLA-A*02): “++++” (>75% = ++++); Wells positive [%] (CD8+ T cells; HLA A*02): “++” (20%-49% = ++)
130 (NLWGGQGLLGV; listed as Homo sapiens) [compound 130]			Peptide exchange (peptide exchange yield, MHC class I binding score) (HLA-A*02): “++++” (>75% = ++++); Wells positive [%] (CD8+ T cells; HLA A*02): “+” (<20% = +)
131 (LLKEFVQRV; listed as Homo sapiens) [compound 131]			Peptide exchange (peptide exchange yield, MHC class I binding score) (HLA-A*02): “++++” (>75% = ++++); Wells positive [%] (CD8+ T cells; HLA A*02): “++++” (>=70% = ++++)
132 (ALWLVDPLTV; listed as Homo sapiens) [compound 132]			Peptide exchange (peptide exchange yield, MHC class I binding score) (HLA-A*02): “++++” (>75% = ++++); Wells positive [%] (CD8+ T cells; HLA A*02): “+++” (50%-69% = +++)
133 (MTLPVDAVISV; listed as Homo sapiens) [compound 133]			Peptide exchange (peptide exchange yield, MHC class I binding score) (HLA-A*02): “++++” (>75% = ++++); Wells positive [%] (CD8+ T cells; HLA A*02): “+” (<20% = +)
202 (KLAELEGALQK; listed as Homo sapiens) [compound 202]	“++++” (>75% = ++++)		
203 (KVKDTPGLGK; listed as Homo sapiens) [compound 203]	“++++” (>75% = ++++)		
205 (SLDGAARPK; listed as Homo sapiens) [compound 205]	“++++” (>75% = ++++)		Wells positive [%] (CD8+ T cells; HLA A*03): “++” (20%-49% = ++)
206 (KLIDLSQVMY; listed as Homo sapiens) [compound 206]	“++++” (>75% = ++++)		
208 (GLASRILDAK; listed as Homo sapiens) [compound 208]	“++++” (>75% = ++++)		Wells positive [%] (CD8+ T cells; HLA A*03): “+” (<20% = +)
209 (RTQIPMSEK; listed as Homo sapiens) [compound 209]	“++++” (>75% = ++++)		Wells positive [%] (CD8+ T cells; HLA A*03): “+” (<20% = +)
216 (KLYAWELAF; listed as Homo sapiens) [compound 216]	“+++” (>50 = +++)		

Substance	Peptide exchange (peptide exchange yield, MHC class I binding score) (HLA-A*03)	Peptide exchange (peptide exchange yield, MHC class I binding score) (HLA-B*08)	further results
217 (RILNQILYY; listed as Homo sapiens) [compound 217]	“++++” (>75% = ++++)		
218 (KTLVAELLILK; listed as Homo sapiens) [compound 218]	“+++” (>50 = +++)		Wells positive [%] (CD8+ T cells; HLA A*03): “+” (<20% = +)
296 (MPMQDIKM; listed as Homo sapiens) [compound 296]		“++++” (>75% = ++++)	
297 (RAQLKLVAL; listed as Homo sapiens) [compound 297]		“++++” (>75% = ++++)	Wells positive [%] (CD8+ T cells; HLA B*08): “+” (<20% = +)
299 (MAQFKEISL; listed as Homo sapiens) [compound 299]		“++++” (>75% = ++++)	Wells positive [%] (CD8+ T cells; HLA B*08): “++++” (>=70% = ++++)
301 (YMHKLLVL; listed as Homo sapiens) [compound 301]		“++++” (>75% = ++++)	
302 (HLLQKQTSI; listed as Homo sapiens) [compound 302]		“+++” (>50 = +++)	
306 (ILKVKVGL; listed as Homo sapiens) [compound 306]		“++++” (>75% = ++++)	Wells positive [%] (CD8+ T cells; HLA B*08): “+” (<20% = +)
312 (EAMLRNKEL; listed as Homo sapiens) [compound 312]		“++++” (>75% = ++++)	Wells positive [%] (CD8+ T cells; HLA B*08): “+” (<20% = +)
314 (AIISRLVAL; listed as Homo sapiens) [compound 314]		“++++” (>75% = ++++)	Wells positive [%] (CD8+ T cells; HLA B*08): “++” (20%-49% = ++)
317 (LVKVKVLL; listed as Homo sapiens) [compound 317]		“++++” (>75% = ++++)	
392 (SLFKDQMEL; listed as Homo sapiens) [compound 392]			Peptide exchange (peptide exchange yield, MHC class I binding score) (HLA-A*02): “++++” (>75% = ++++); Wells positive [%] (CD8+ T cells; HLA A*02): “+” (<20% = +)
393 (ILLPYLQTL; listed as Homo sapiens) [compound 393]			Peptide exchange (peptide exchange yield, MHC class I binding score) (HLA-A*02): “++++” (>75% = ++++); Wells positive [%] (CD8+ T cells; HLA A*02): “+” (<20% = +)
454 (KVYTPSISK; listed as Homo sapiens) [compound 454]	“++++” (>75% = ++++)		
457 (SINKPTSER; listed as Homo sapiens) [compound 457]	“++++” (>75% = ++++)		
458 (GIADFVLKY; listed as Homo sapiens) [compound 458]	“++++” (>75% = ++++)		
